According to ChEMBL document CHEMBL4014353, “1,2,4-Triazolo-[1,5-a]pyridine HIF Prolylhydroxylase Domain-1 (PHD-1) Inhibitors With a Novel Monodentate Binding Interaction” (J Med Chem, 2017):
Converted amounts (≈) assume the structure as drawn.

Key:
[1] = Cmax in C57BL/6 mouse at 3 mg/kg, po administered as cassette dose; format: ADME, organism-based; parameters: dose 3 mg/kg, route oral; conditions: in vivo
[2] = Protein binding in mouse plasma; format: ADME, cell-free; conditions: read-out: PPB (converted)
[3] = Clearance in C57BL/6 mouse at 0.5 mg/kg, iv administered as cassette dose; format: ADME, organism-based; conditions: in vivo
[4] = Kinetic solubility of the compound by LC-UV/MS analysis; format: physicochemical; conditions: read-out: Kinetic_solubility
[5] = AUC (0 to t) in C57BL/6 mouse at 3 mg/kg, po administered as cassette dose; format: ADME, organism-based; conditions: in vivo
[6] = Oral bioavailability in C57BL/6 mouse at 3 mg/kg administered as cassette dose; format: ADME, organism-based; conditions: in vivo
[7] = Ratio of drug level in C57BL/6 mouse brain to plasma at 3 mg/kg, po or 0.5 mg/kg, iv administered as cassette dose; format: ADME, organism-based; conditions: brain and plasma, read-out: BPR
[8] = Permeability of the compound after 5 hrs by PAMPA; format: physicochemical; conditions: read-out: permeability
[9] = Ratio of unbound brain to plasma concentration in C57BL/6 mouse at 3 mg/kg, po or 0.5 mg/kg, iv administered as cassette dose; format: ADME, organism-based; conditions: brain and plasma, read-out: K(p,uu,brain)

## Cc1cc(C#N)ccc1-c1cccc2ncnn12
[1]
  Cmax: 5.58 µM
[2]
  fraction unbound: 0.21
[3]
  clearance: 31.6 mL/min/kg
[4]
  solubility kinetic: 189 µM (≈ 44.3 µg/mL)
[5]
  AUC(0-t): 1870 ng·h/mL
[6]
  bioavailability: 100%
[7]
  Kp: 0.88
[8]
  Papp at 5 h: 40.9 ×10⁻⁶ cm/s
[9]
  Kp uu: 1.59

## N#Cc1ccc(-c2cccc3ncnn23)cc1
[1]
  Cmax: 0.8 µM
[2]
  fraction unbound: 0.287
[3]
  clearance: 108 mL/min/kg
[4]
  solubility kinetic: 44 µM (≈ 9.69 µg/mL)
[5]
  AUC(0-t): 176 ng·h/mL
[6]
  bioavailability: 40%
[7]
  Kp: 0.95
[8]
  Papp at 5 h: 24.6 ×10⁻⁶ cm/s
[9]
  Kp uu: 1.11

## CC(=O)Nc1cc(-c2ccc(C#N)cc2C)n2ncnc2c1
[1]
  Cmax: 5 µM
[2]
  fraction unbound: 0.486
[3]
  clearance: 17.5 mL/min/kg
[4]
  solubility kinetic: 99 µM (≈ 28.8 µg/mL)
[5]
  AUC(0-t): 3660 ng·h/mL
[6]
  bioavailability: 100%
[7]
  Kp: 0.03
[8]
  Papp at 5 h: 2.9 ×10⁻⁶ cm/s
[9]
  Kp uu: 0.02

## Cc1cc(C#N)ccc1-c1cc(N)cc2ncnn12
[1]
  Cmax: 14.8 µM
[2]
  fraction unbound: 0.302
[3]
  clearance: 0.48 mL/min/kg
[4]
  solubility kinetic: 151 µM (≈ 37.6 µg/mL)
[5]
  AUC(0-t): 40000 ng·h/mL
[6]
  bioavailability: 39%
[7]
  Kp: 0.21
[8]
  Papp at 5 h: 5.9 ×10⁻⁶ cm/s
[9]
  Kp uu: 0.39
